Source: patent US20170265463A1, “SPORICIDAL COMPOSITION” (CASE WESTERN RESERVE UNIVERSITY, priority 2016, published 2017)

What was measured:
[1] = tested on: Clostridium difficile spores (VA11, VA17, ATCC 43593); test: Effect of altered pH on sporicidal activity of alcohol (spore suspension, log10CFU reduction); type: cell-based; conditions: 70% alcohol acidified to pH<2 (pH 1.5), 5 minutes, room temperature (FIG. 7A)
Method: (room temperature). B. subtilis, B. thuringiensis, and three strains of C. difficile spores were tested (described above in Spore Strains and Growth Conditions). The reaction was quenched by neutralizing 1:1 in Dey-Engley neutralization broth (BD Biosciences, San Jose, Calif., USA). Neutralized samples were serial diluted in deionized water, drop-plated, and cultured as described above in Spore Strains and Growth Conditions.
The reaction was quenched by neutralizing 1:1 in Dey-Engley neutralization broth (BD Biosciences, San Jose, Calif.). Neutralized samples were serially diluted in deionized water, drop-plated, and cultured as described previously. To increase the sensitivity of enumeration for samples with high levels of spore killing, 1 mL of the neutralized spore suspensions were spread-plated.

[2] = tested on: C. difficile spores (strains VA11 and VA17); conditions: 70% ethanol, no pH alteration
Method: (§1) To determine the effect of elevated temperature on the sporicidal efficacy of ethanol, ten microliters of spores (˜10^6 CFU) were incubated in one mL of 70% ethanol or deionized water at about 22° C. (room temperature), 55° C. or 80° C. The pH was not altered for these experiments. B. subtilis, B. thuringiensis, and VA11 and VA17 C. difficile spores were tested (described above in Spore Strains and Growth Conditions). After 0, 5, 10, 20, 30 and 60 minutes of incubation at the appropriate temperature, aliquots of each spore suspension were serial diluted in deionized water, drop-plated, and cultured as described above in Spore Strains and Growth Conditions. Log10CFU reduction of spores was determined by calculating the difference in log10CFU recovered from baseline (spores incubated in water) and experimental groups (spores incubated in ethanol).

B. thuringiensis spores [3] = conditions: 70% ethanol, no pH alteration, 80° C., 60 minutes
Method: as §1

B. subtilis spores [4] = conditions: 70% ethanol, no pH alteration, 80° C., 60 minutes
Method: as §1

[5] = tested on: C. difficile (VA17) spores; test: Dipicolinic acid (DPA) release, terbium fluorescence; type: cell-based, Clostridium difficile; conditions: room temperature, within 10 minutes; compared to water, 70% ethanol and pH 1.5 water
Method: (§2) To assess whether acidified ethanol truly kills spores or only renders them incapable of germination, recovery of killed spores was assessed by incubation in lysozyme or dodecylamine which bypass germinant receptors. To assess whether acidified ethanol kills spores through alteration in the permeability of the dormant spores' inner membrane barrier, we evaluated whether spore killing occurs in parallel with dipicolinic acid (DPA) release. C. difficile (VA17), B. thuringiensis and B. subtilis spores were suspended in water, water altered to pH 1.5, 70% ethanol, 70% ethanol altered to pH 1.5, 3.0 or 3.0 with increased ionic strength, and 1 mM dodecylamine (induces DPA release in spores of several species). After 1, 5, and 10 minutes of incubation at room temperature (about 22° C.), DPA release was assessed as previously described. […] Fluorescence was measured using a plate reader (SpectraMaxM2, Bucher Biotec, Basel, Switzerland) with the following settings: time resolved fluorescence (delay 50 μs, interval 1200 μs) at an excitation wavelength of 272 nm, emission wavelength of 545 nm, and 5 endpoint readings per sample at 22° C. To determine percent DPA release, relative fluorescence units (RFU) of test solutions were compared to the RFU of total spore DPA content (supernatant of 10^7 CFU spores suspended in water boiled for 30 minutes) as previously described.

B. thuringiensis spores [6] = conditions: room temperature, 1, 5, 10 minutes
Method: as §2

B. subtilis spores [7] = conditions: room temperature, 1, 5, 10 minutes
Method: as §2

[8] = tested on: toxigenic C. difficile spores; set-up: species or system Clostridium difficile; conditions: applied as a liquid or wipe
Description: Reduction of toxigenic C. difficile spores inoculated on gloves of volunteers was compared after 30 or 60 second exposures to the sporicidal ethanol formulation, 70% ethanol, and 1:10 or 1:100 dilutions of household bleach; the solutions were applied both as a liquid solution and as a wipe. We also examined the efficacy of the sporicidal ethanol formulation for elimination of spore contamination from the gloves of healthcare personnel interacting with C. difficile infection (CDI) patients or their environment. To determine the potential for the disinfectants to damage clothing, the solutions were applied to pieces of colored cloth.

spores = test: Other antibacterial compounds in combination with acidified ethanol (sporicidal activity); type: cell-based; conditions: compared with addition of peracetic acid
[9] = in-use concentrations of surface disinfectants (~1500 ppm); cited from earlier work
[10] = tested on: C. difficile (VA17) spores; test: Effect of addition of dilute peracetic acid on sporicidal activity of acidified ethanol; type: cell-based, Clostridium difficile; conditions: peracetic acid alone at 450, 650 and 1500 ppm, 3 minute dwell time
Method: (§3) The effect of addition of peracetic acid on activity of acidified ethanol against C. difficile (VA17) and B. subtilis was tested at room temperature (about 22° C.). The pH of specified test solutions was adjusted to 2.5 or 1.5 with hydrochloric acid (HCl). Ten microliters of spores (about 10^6 CFU) were inoculated into one mL of water (baseline), pH adjusted ethanol, peracetic acid at 450, 650, or 1500 ppm, pH adjusted peracetic acid at 450 and 650 ppm, ethanol plus peracetic acid at 450 and 650 ppm, and pH adjusted ethanol plus peracetic acid at 450 and 650 ppm. Spore suspensions were incubated at room temperature for three minutes. The reaction was quenched by neutralizing 1:1 in Dey-Engley neutralization broth (BD Biosciences). […] Experiments were performed in triplicate.
(§4) The effect of the addition of dilute PAA on the activity of acidified ethanol against C. difficile strain VA17 and B. subtilis was tested at 22° C. The pH of specified test solutions was adjusted to 2.5 or 1.5 with hydrochloric acid. Ten μL of spores (˜10^6 CFU) were inoculated into one mL of water (baseline), pH adjusted ethanol, PAA at 450, 650, or 1500 ppm, pH adjusted PAA at 450 and 650 ppm, ethanol plus PAA at 450 and 650 ppm, and pH adjusted ethanol plus PAA at 450 and 650 ppm and incubated for 3 minutes. The reaction was quenched by neutralizing 1:1 in Dey-Engley neutralization broth. […]

[11] = tested on: non-toxigenic C. difficile spores (ATCC 43593); test: Reduction of C. difficile spores on hands of volunteers (fingerpad method, modified ASTM E 2276-10); type: in vivo, Clostridium difficile; conditions: Example 3; P>0.05
Method: A modification of the “Standard Test Method for Determining the Bacteria-Eliminating Effectiveness of Hygienic Handwash and Handrub Agents Using the Fingerpads of Adults” (American Society for Testing and Materials E 2276-10) was used to determine the efficacy of test solutions against non-toxigenic C. difficile spores. Each fingerpad of both hands were contaminated with 10 μL of a liquid inoculum containing 6 log10CFU of ATCC 43593 spores. The fingerpads were rubbed together until the inoculum was dry. Hand contamination levels were measured using the fingerpad sampling method. In brief, the fingerpads of each hand were rubbed with slight friction against the bottom of a 150 mm×15 mm Petri dish filled with 25 mL of Dey-Engley neutralizer (BD Biosciences, San Jose, Calif., USA) for 30 seconds. […] Log10 reductions were calculated by subtracting log10 CFU recovered after hand hygiene treatment from log10 CFU recovered from hands without treatment.
A crossover design was used such that each volunteer was exposed to three of the disinfection procedures. […] The person reading the plates to quantify spore counts was blinded to the test product that was used. […]
Similar experiments were conducted to assess the efficacy of dilute peracetic acid-containing solutions and acidified ethanol solutions at 42° C. […] Reductions in spore counts were then determined as described previously. […]

B. subtilis spores [12] = test: Effect of addition of dilute peracetic acid on sporicidal activity of acidified ethanol; type: cell-based, Bacillus subtilis; conditions: peracetic acid alone at 450, 650 and 1500 ppm, 3 minute dwell time
Method: as §3, §4

CCCO [1-propanol]
Sporicidal activity against C. difficile spores on acidification of the alcohol [1]: induced sporicidal activity

CC(C)O [2-propanol]
Sporicidal activity against C. difficile spores on acidification of the alcohol [1]: induced sporicidal activity

CCO [70% ethanol, ethanol]
Log10CFU reduction of C. difficile spores ([2]; 55° C., 60 minutes): 1 log10CFU
Detectable C. difficile spores ([2]; 80° C., 10 minutes): no C. difficile spores were detectable
Log10CFU reduction of B. thuringiensis spores (B. thuringiensis spores [3]): > 5 log10CFU
Log10CFU reduction of B. subtilis spores (B. subtilis spores [4]): > 4 log10CFU
DPA release from C. difficile spores [5]: low levels of baseline DPA release
DPA release from B. thuringiensis spores (B. thuringiensis spores [6]): low levels of baseline DPA release
DPA release from B. subtilis spores (B. subtilis spores [7]): did not
Reduction in spores on gloves [8]: < 1 log

[O][Cl+][O-] [chlorine dioxide]
Enhancement of sporicidal activity on addition to acidified ethanol (spores): did not result in similar enhancement of sporicidal activity

[Cu] [copper]
Enhancement of sporicidal activity on addition to acidified ethanol (spores): did not result in similar enhancement of sporicidal activity

II [iodine]
Enhancement of sporicidal activity on addition to acidified ethanol (spores): did not result in similar enhancement of sporicidal activity

CC(=O)OO [peracetic acid]
Skin irritation [9]: does not cause skin irritation
Reduction of C. difficile spores [10]: in a dose-dependent fashion
Reduction in C. difficile spores on hands compared with soap and water hand wash [11]: not significantly different
Reduction of B. subtilis spores (B. subtilis spores [12]): in a dose-dependent fashion

OCl [sodium hypochlorite]
Enhancement of sporicidal activity on addition to acidified ethanol (spores): did not result in similar enhancement of sporicidal activity
